Experimental data reported in PMC7177849, “Gut Microbial Catabolites of Tryptophan Are Ligands and Agonists of the Aryl Hydrocarbon Receptor: A Detailed Characterization” (International Journal of Molecular Sciences, 2020).
Several values for one entry are separate records, joined by “and”; a condition that tells them apart may be missing. Identical values can stand only once. Like-named read-outs stand apart in the source and are kept apart here.

Key:
murine AhR = target: T1, murine AhR (Mus musculus, UniProt P30561); assay: Competitive radio-ligand ([3H]-TCDD) AhR binding assay, cytosols from Hepa1c1c7 cells; conditions: Table 1 summary class
T1 sequence (P30561 10-805): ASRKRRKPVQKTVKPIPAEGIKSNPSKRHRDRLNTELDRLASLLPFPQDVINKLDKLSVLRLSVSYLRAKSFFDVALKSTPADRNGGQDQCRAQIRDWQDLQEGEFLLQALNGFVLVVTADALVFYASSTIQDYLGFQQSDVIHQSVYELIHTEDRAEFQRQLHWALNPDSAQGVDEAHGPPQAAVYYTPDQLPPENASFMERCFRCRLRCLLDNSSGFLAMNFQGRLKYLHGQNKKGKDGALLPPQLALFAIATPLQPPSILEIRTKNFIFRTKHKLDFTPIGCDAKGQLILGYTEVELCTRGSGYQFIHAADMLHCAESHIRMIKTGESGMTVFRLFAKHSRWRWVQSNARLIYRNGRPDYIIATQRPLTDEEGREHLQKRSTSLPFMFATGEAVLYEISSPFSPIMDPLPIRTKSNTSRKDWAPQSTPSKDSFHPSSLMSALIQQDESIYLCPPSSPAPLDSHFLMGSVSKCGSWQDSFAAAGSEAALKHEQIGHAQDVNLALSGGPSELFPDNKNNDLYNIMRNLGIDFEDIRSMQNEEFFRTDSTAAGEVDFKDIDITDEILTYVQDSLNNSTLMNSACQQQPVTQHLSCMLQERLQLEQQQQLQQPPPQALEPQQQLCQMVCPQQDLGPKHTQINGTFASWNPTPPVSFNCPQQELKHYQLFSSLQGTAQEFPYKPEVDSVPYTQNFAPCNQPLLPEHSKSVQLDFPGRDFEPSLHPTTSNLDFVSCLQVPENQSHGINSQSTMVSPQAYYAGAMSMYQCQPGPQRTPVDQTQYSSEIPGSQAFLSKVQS
Description: Figure 2 Competitive radio-ligand binding assay. Cytosols from Hepa1c1c7 cells were incubated with vehicle (negative control; 0.1% V/V), FICZ (positive control; 0.01 nM – 10 nM), TCDF (non-specific binding; 200 nM) and increasing doses of MICT in the presence of 2 nM [^3H]-TCDD. The specific binding of [^3H]-TCDD was determined as a difference between total and non-specific (200 nM; TCDF) reactions (value for vehicle DMSO; 0.1% V/V = corresponds to specific binding of [^3H]-TCDD = 100%). At least two independent experiments were performed and the incubations were done in triplicates in each experiment (technical replicates).
Ligand binding assay was performed using cytosolic protein extracts from murine Hepa1c1c7 cells as described. Briefly, aliquots of protein (2 mg/mL) were incubated at the room temperature for two (2) h with 2 nM [^3H]-TCDD in the presence of DMSO (vehicle control), FICZ (positive control), 200 nM TCDF (non-specific binding) or increasing concentration of MICT. After the incubation, the hydroxyapatite slurry was added to the samples and the suspension was incubated on ice and washed three times with HEGT buffer. The hydroxyapatite pellet was re-suspended in scintillation cocktail, and radioactivity was determined in a liquid scintillation counter. The specific binding of [^3H]-TCDD was determined by subtracting the radioactivity of non-specific reaction (TCDF) from total radioactivity. The values of IC50 were calculated where appropriate.

AhR = target: T2, AhR (Homo sapiens, UniProt P35869); assay: Immunofluorescence detection of nuclear translocation of the AhR in LS180 cells; format: cell-based; design: 0.1% V/V), TCDD (10 nM), and test MICT; host or cells: LS180 cells
T2 sequence (P35869 11-848): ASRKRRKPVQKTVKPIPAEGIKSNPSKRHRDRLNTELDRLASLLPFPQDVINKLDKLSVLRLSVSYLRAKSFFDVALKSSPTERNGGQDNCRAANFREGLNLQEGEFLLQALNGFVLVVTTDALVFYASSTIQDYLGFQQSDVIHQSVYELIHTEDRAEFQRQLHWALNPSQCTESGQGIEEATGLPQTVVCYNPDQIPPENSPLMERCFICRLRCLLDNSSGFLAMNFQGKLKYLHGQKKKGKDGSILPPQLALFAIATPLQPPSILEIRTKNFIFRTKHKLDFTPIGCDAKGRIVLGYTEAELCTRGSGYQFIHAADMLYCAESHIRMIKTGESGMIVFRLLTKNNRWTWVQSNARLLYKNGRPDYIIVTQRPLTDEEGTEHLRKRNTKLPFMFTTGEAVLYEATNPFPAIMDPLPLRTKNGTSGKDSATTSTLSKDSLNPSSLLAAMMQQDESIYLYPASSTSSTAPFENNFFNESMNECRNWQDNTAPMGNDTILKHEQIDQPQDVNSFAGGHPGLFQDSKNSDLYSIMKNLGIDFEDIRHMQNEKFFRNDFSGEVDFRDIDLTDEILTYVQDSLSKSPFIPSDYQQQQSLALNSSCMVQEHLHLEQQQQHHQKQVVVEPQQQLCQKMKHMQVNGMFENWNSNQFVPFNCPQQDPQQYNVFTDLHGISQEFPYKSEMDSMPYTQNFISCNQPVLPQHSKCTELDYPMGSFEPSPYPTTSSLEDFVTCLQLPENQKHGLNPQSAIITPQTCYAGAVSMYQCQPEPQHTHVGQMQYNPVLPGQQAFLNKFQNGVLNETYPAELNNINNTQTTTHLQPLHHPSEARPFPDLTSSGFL
Description: Figure 5 Effect of MICT on nuclear translocation of the AhR. LS180 cells were incubated for 90 min with vehicle (DMSO; 0.1% V/V), TCDD (10 nM), and test MICT. The experiments were performed in three consecutive cell passages with all tested compounds in duplication. Fluorescence images depict sub-cellular localization of AhR (upper panels) and nuclear staining by DAPI (lower panels). Representative micrographs are shown.
LS180 cells (60,000 cells/well) were plated on 8-well chambered slides (94.6140.802, Sarstedt, Nümbrecht, Germany) and allowed to grow overnight. Then, the cells were incubated with DMSO (0.1% V/V), TCDD (10 nM), IND (1000 µM), IPY (200 µM), 3MI (200 µM), TA (200 µM), IAC (100 µM), and IAD (200 µM). The staining procedure was described in detail elsewhere. The images were captured using an IX73 fluorescence microscope (Olympus, Tokyo, Japan). The immunofluorescence signal intensity (of the AhR antibody) in the nucleus was evaluated visually. For percentage calculation, approximately 500 cells from at least four randomly selected fields of view in each specimen were used.
Suppl. Table 1. Nuclear translocation of AhR – quantification of immunofluorescence.
LS180 cells were incubated for 90 min with MICT , vehicle or TCDD. Intracellular AhR was visualized with Alexa Fluor 488 labelled primary antibody. The whole staining protocol was performed in three independent experiments in technical duplicates. The AhR translocation was evaluated visually depending on the distinct signal intensity of AhR antibody in the nucleus and cytosol. For percentage calculation, approximately one hundred cells from at least four randomly selected fields of view in each

[1] = LS180, 90 min, exp 1, TCDD 10 nM, Indole 1 mM, IAC 100 µM, others 200 µM
[2] = LS180, 90 min, exp 2, TCDD 10 nM, Indole 1 mM, IAC 100 µM, others 200 µM
[3] = LS180, 90 min, exp 3, TCDD 10 nM, Indole 1 mM, IAC 100 µM, others 200 µM
[4] = mean ± SD, n = 3, relative to TCDD-treated cells, LS180, 90 min
[5] = relative to TCDD-treated cells, LS180, 90 min, exp 1, same concentrations
[6] = relative to TCDD-treated cells, LS180, 90 min, exp 2, same concentrations
[7] = relative to TCDD-treated cells, LS180, 90 min, exp 3, same concentrations

| Structure (SMILES) | Affinity (IC50) (murine AhR) | % positive AhR nuclei (AhR; [1]) | % positive AhR nuclei (AhR; [2]) | % positive AhR nuclei (AhR; [3]) | Ø AhR positive nuclei (AhR; [4]) | % relative AhR nuclei (AhR; [5]) | % relative AhR nuclei (AhR; [6]) | % relative AhR nuclei (AhR; [7]) | % positive AhR nuclei (AhR) | % relative AhR nuclei (AhR) | Ø AhR positive nuclei (AhR) |
| --- | --- | --- | --- | --- | --- | --- | --- | --- | --- | --- | --- |
| NCCc1c[nH]c2ccccc12 [TA, tryptamine] | no | 44% | 65% | 66% | 91 ± 14.6% | 81% | 84% | 108% | – | – | – |
| OCCc1c[nH]c2ccccc12 [IET, indole-3-ethanol] | very low | – | – | – | – | – | – | – | – | – | – |
| c1ccc2[nH]ccc2c1 [IND, indole] | very low | – | – | – | – | – | – | – | 61% and 73% and 65% | 113% and 95% and 107% | 105 ± 9.2% |
| NC(=O)Cc1c[nH]c2ccccc12 [IAD, indole-3-acetamide] | low | 46% | 73% | 42% | 83 ± 13.1% | 85% | 95% | 69% | – | – | – |
| O=C(O)C(O)Cc1c[nH]c2ccccc12 (centres unmarked) [ILA, indole-3-lactate] | no | – | – | – | – | – | – | – | – | – | – |
| Cc1c[nH]c2ccccc12 [3MI, skatole] | low | 65% | 72% | 62% | 105 ± 13.8% | 120% | 94% | 102% | – | – | – |
| Clc1cc2c(cc1Cl)Oc1cc(Cl)c(Cl)cc1O2 [TCDD, 2,3,7,8-tetrachlorodibenzo-p-dioxin, reference compound] | – | 54% | 77% | 61% | – | – | – | – | – | – | – |
| O=C(O)C(=O)Cc1c[nH]c2ccccc12 [IPY, indole-3-pyruvate] | low | 42% | 60% | 38% | 73 ± 9.0% | 78% | 78% | 62% | – | – | – |
| O=Cc1c[nH]c2ccccc12 [IA, indole-3-aldehyde] | no | – | – | – | – | – | – | – | – | – | – |
| O=C(O)/C=C/c1c[nH]c2ccccc12 [IAC, indole-3-acrylate] | very low | 51% | 61% | 73% | 98 ± 20.4% | 94% | 79% | 120% | – | – | – |
